Experimental data: ChEMBL document CHEMBL1955793, “Integrated structure-based activity prediction model of benzothiadiazines on various genotypes of HCV NS5b polymerase (1a, 1b and 4) and its application in the discovery of new derivatives” (Bioorg Med Chem, 2012)
The source made the active and inactive calls. No cut-off for these calls is given here.

Tests used:
[1] = tested on: Hepatitis C virus; assay: Antiviral activity against Hepatitis C virus genotype 1b 1389 infected in human HuH5.2 cells assessed as inhibition of viral replication after 72 hrs by luciferase reporter gene assay; format: functional, organism-based, Hepacivirus hominis; conditions: genotype 1b 1389, Huh-5-2, 72 h
[2] = tested on: Hepatitis C virus genotype 4; assay: Inhibition of Hepatitis C virus genotype 4 NS5B polymerase at 10 uM
[3] = Cytotoxicity against human HuH5.2 cells after 1.5 hrs by MTS assay; format: cell-based, Huh-5-2
[4] = Inhibition of Hepatitis C virus genotype 1a NS5B polymerase; set-up: species or system Hepatitis C virus subtype 1a
[5] = tested on: Hepatitis C virus; assay: Inhibition of Hepatitis C virus genotype 1b NS5B polymerase; set-up: species or system Hepatitis C virus subtype 1b
[6] = tested on: Hepatitis C virus; assay: Inhibition of Hepatitis C virus genotype 1b 1389 NS5B polymerase; set-up: species or system Hepatitis C virus subtype 1b

## O=S1(=O)N=C(c2cn(Cc3ccccc3)c3ccccc23)Nc2ncc(Br)cc21
[1]
  EC50: 20200 nM
[2]
  inhibition: inactive
[3]
  CC50 at 1.5 h: > 50000 nM

## O=c1c(C2=NS(=O)(=O)c3ccccc3N2)c(O)c2ccccc2n1NC1=CCOC=C1
[4]
  IC50: 4630 nM
[5]
  IC50: 439 nM

## C=CCn1cc(C2=NS(=O)(=O)c3cc(Br)cnc3N2)c2ccccc21
[1]
  EC50: 25400 nM
[2]
  inhibition: inactive
[3]
  CC50 at 1.5 h: > 50000 nM

## CCCn1cc(C2=NS(=O)(=O)c3cc(Br)ccc3N2)c2ccccc21
[2]
  inhibition: inactive

## CCCn1cc(C2=NS(=O)(=O)c3ccccc3N2)c2ccccc21
[1]
  EC50: 4150 nM
[2]
  inhibition: inactive
[3]
  CC50 at 1.5 h: > 50000 nM

## CCc1cc(CC[C@]2(C3CCCC3)CC(O)=C(Cc3nc4nc(C)cc(C)n4n3)C(=O)O2)cc(CC)n1 [FILIBUVIR]
[1]
  EC50: 41 nM

## CCCC(Nn1c(=O)c(C2=NS(=O)(=O)c3ccccc3N2)c(O)c2ccccc21)C(C)C (centres undefined)
[4]
  IC50: 6400 nM
[5]
  IC50: 1130 nM

## O=c1c(C2=NS(=O)(=O)c3ccccc3N2)c(O)c2ccccc2n1NC1CCCCCC1
[4]
  IC50: 1040 nM
[5]
  IC50: 217 nM

## CC(C)(C)CCNn1c(=O)c(C2=NS(=O)(=O)c3ccccc3N2)c(O)c2ccccc21
[4]
  IC50: 411 nM
[5]
  IC50: 135 nM

## Cc1ccsc1CNn1c(=O)c(C2=NS(=O)(=O)c3ccccc3N2)c(O)c2ccccc21
[4]
  IC50: 15000 nM
[5]
  IC50: 1190 nM

## O=c1c(C2=NS(=O)(=O)c3ccccc3N2)c(O)c2ccccc2n1NCc1ccc(Br)cc1
[4]
  IC50: 10400 nM
[5]
  IC50: 4690 nM

## Fc1ccccc1-c1nc2ccn(Cc3ccc(-c4ccc(C(F)(F)F)cc4C(F)(F)F)nn3)cc-2n1 [TEGOBUVIR]
[1]
  EC50: 0.7 nM

## CCCn1cc(C2=NS(=O)(=O)c3cc(I)ccc3N2)c2ccccc21
[2]
  inhibition: inactive

## CCCCn1cc(C2=NS(=O)(=O)c3cc(NS(C)(=O)=O)ccc3N2)c2cc(Br)ccc21
[1]
  EC50: 7700 nM
[2]
  inhibition: 60%
[3]
  CC50 at 1.5 h: 49200 nM

## O=c1c(C2=NS(=O)(=O)c3ccccc3N2)c(O)c2ccccc2n1NC1CCC1
[4]
  IC50: 278 nM
[5]
  IC50: 108 nM

## CC(C)CCNn1c(=O)c(C2=NS(=O)(=O)c3ccccc3N2)c(O)c2ccccc21
[4]
  IC50: 629 nM
[5]
  IC50: 134 nM

## CC(Nn1c(=O)c(C2=NS(=O)(=O)c3ccccc3N2)c(O)c2ccccc21)c1ccccc1 (centres undefined)
[4]
  IC50: 16500 nM
[5]
  IC50: 1490 nM

## CCC(CC)Nn1c(=O)c(C2=NS(=O)(=O)c3ccccc3N2)c(O)c2ccccc21
[4]
  IC50: 2460 nM
[5]
  IC50: 120 nM

## CS(=O)(=O)Nc1ccc2c(c1)S(=O)(=O)N=C(c1cn(Cc3ccccc3)c3ccccc13)N2
[2]
  inhibition: 60%

## CC(C)CCn1cc(C2=NS(=O)(=O)c3cc(NS(C)(=O)=O)ccc3N2)c2ccccc21
[6]
  IC50: 1200 nM
[2]
  inhibition: 60%

## O=c1c(C2=NS(=O)(=O)c3ccccc3N2)c(O)c2ccccc2n1NCc1nccs1
[4]
  IC50: 35800 nM
[5]
  IC50: 674 nM

## O=S1(=O)N=C(c2cn(Cc3ccccc3)c3ccccc23)Nc2ccccc21
[1]
  EC50: 1860 nM
[2]
  inhibition: inactive
[3]
  CC50 at 1.5 h: > 50000 nM

## CCCCn1cc(C2=NS(=O)(=O)c3cc(Br)cnc3N2)c2ccccc21
[1]
  EC50: 5890 nM
[2]
  inhibition: inactive
[3]
  CC50 at 1.5 h: 21900 nM

## O=c1c(C2=NS(=O)(=O)c3ccccc3N2)c(O)c2ccccc2n1NCc1cccs1
[4]
  IC50: 2330 nM
[5]
  IC50: 125 nM

## O=c1c(C2=NS(=O)(=O)c3ccccc3N2)c(O)c2ccccc2n1NCc1ccco1
[4]
  IC50: 3260 nM
[5]
  IC50: 305 nM

## O=c1c(C2=NS(=O)(=O)c3ccccc3N2)c(O)c2ccccc2n1NCc1ccccc1
[4]
  IC50: 5090 nM
[5]
  IC50: 129 nM

## CCCCn1cc(C2=NS(=O)(=O)c3ccccc3N2)c2cc(Br)ccc21
[1]
  EC50: 9900 nM
[2]
  inhibition: inactive
[3]
  CC50 at 1.5 h: 37200 nM

## CCCn1cc(C2=NS(=O)(=O)c3cc(Br)cnc3N2)c2ccccc21
[1]
  EC50: 2960 nM
[2]
  inhibition: inactive
[3]
  CC50 at 1.5 h: 16600 nM

## O=c1c(C2=NS(=O)(=O)c3ccccc3N2)c(O)c2ccccc2n1NCc1ccccc1Br
[4]
  IC50: 6720 nM
[5]
  IC50: 469 nM

## CCCCn1cc(C2=NS(=O)(=O)c3ccccc3N2)c2ccccc21
[1]
  EC50: 8010 nM
[2]
  inhibition: inactive
[3]
  CC50 at 1.5 h: > 50000 nM

## Cc1cccc(CNn2c(=O)c(C3=NS(=O)(=O)c4ccccc4N3)c(O)c3ccccc32)c1
[4]
  IC50: 8210 nM
[5]
  IC50: 212 nM

## C=CCn1cc(C2=NS(=O)(=O)c3ccccc3N2)c2ccccc21
[2]
  inhibition: inactive
[3]
  CC50 at 1.5 h: > 50000 nM

## Cc1ccccc1CNn1c(=O)c(C2=NS(=O)(=O)c3ccccc3N2)c(O)c2ccccc21
[4]
  IC50: 6120 nM
[5]
  IC50: 481 nM

## O=S1(=O)N=C(c2cn(Cc3ccccc3)c3ccc(Br)cc23)Nc2ccccc21
[2]
  inhibition: inactive

## CCCCNn1c(=O)c(C2=NS(=O)(=O)c3ccccc3N2)c(O)c2ccccc21
[4]
  IC50: 951 nM
[5]
  IC50: 161 nM

## CC(C)CNn1c(=O)c(C2=NS(=O)(=O)c3ccccc3N2)c(O)c2ccccc21
[4]
  IC50: 941 nM
[5]
  IC50: 101 nM

## O=c1c(C2=NS(=O)(=O)c3ccccc3N2)c(O)c2ccccc2n1NCc1ccoc1
[4]
  IC50: 1550 nM
[5]
  IC50: 133 nM

## CCCC(CCC)Nn1c(=O)c(C2=NS(=O)(=O)c3ccccc3N2)c(O)c2ccccc21
[4]
  IC50: 2240 nM
[5]
  IC50: 1800 nM

## CCCCCNn1c(=O)c(C2=NS(=O)(=O)c3ccccc3N2)c(O)c2ccccc21
[4]
  IC50: 928 nM
[5]
  IC50: 100 nM

## O=c1c(C2=NS(=O)(=O)c3ccccc3N2)c(O)c2ccccc2n1NCC1CC1
[4]
  IC50: 285 nM
[5]
  IC50: 145 nM

## Cc1c(C2=NS(=O)(=O)c3ccccc3N2)c2ccccc2n1Cc1ccccc1
[2]
  inhibition: inactive

## O=c1c(C2=NS(=O)(=O)c3ccccc3N2)c(O)c2ccccc2n1NC1CCCCC1
[4]
  IC50: 356 nM
[5]
  IC50: 60 nM

## CC(C)n1cc(C2=NS(=O)(=O)c3ccccc3N2)c2ccccc21
[2]
  inhibition: inactive

## O=c1c(C2=NS(=O)(=O)c3ccccc3N2)c(O)c2ccccc2n1NCc1ccc(Cl)s1
[4]
  IC50: 4780 nM
[5]
  IC50: 1450 nM

## CC(C)n1cc(C2=NS(=O)(=O)c3cc(Br)cnc3N2)c2ccccc21
[2]
  inhibition: inactive

## CC(C)Nn1c(=O)c(C2=NS(=O)(=O)c3ccccc3N2)c(O)c2ccccc21
[4]
  IC50: 6350 nM
[5]
  IC50: 640 nM

## O=c1c(C2=NS(=O)(=O)c3ccccc3N2)c(O)c2ccccc2n1NCc1cccc(Br)c1
[4]
  IC50: 1040 nM
[5]
  IC50: 75 nM

## O=c1c(C2=NS(=O)(=O)c3ccccc3N2)c(O)c2ccccc2n1NC1CCCC1
[4]
  IC50: 747 nM
[5]
  IC50: 150 nM

## CC(C)CCn1cc(C2=NS(=O)(=O)c3ccccc3N2)c2ccccc21
[1]
  EC50: 19700 nM
[2]
  inhibition: inactive
[3]
  CC50 at 1.5 h: > 50000 nM

## CC(C)CCn1cc(C2=NS(=O)(=O)c3ccccc3N2)c2cc(Br)ccc21
[1]
  EC50: 18400 nM
[2]
  inhibition: inactive
[3]
  CC50 at 1.5 h: > 50000 nM

## CCCC(CC)Nn1c(=O)c(C2=NS(=O)(=O)c3ccccc3N2)c(O)c2ccccc21 (centres undefined)
[4]
  IC50: 1890 nM
[5]
  IC50: 386 nM

## CC(C)CCn1cc(C2=NS(=O)(=O)c3cc(Br)cnc3N2)c2ccccc21
[1]
  EC50: 7070 nM
[2]
  inhibition: inactive
[3]
  CC50 at 1.5 h: > 50000 nM

## O=c1c(C2=NS(=O)(=O)c3ccccc3N2)c(O)c2ccccc2n1NCC1CCCCC1
[4]
  IC50: 2530 nM
[5]
  IC50: 150 nM
